Laboratory results reported in PubChem BioAssay AID330 (DTP/NCI, 2004).
Several values for one entry are separate records, joined by “and”; a condition that tells them apart may be missing. Equal values may be shown once. Inconclusive results and toxic doses are left out.

Tested on: P388 leukemia ip, CD2F1 mice, survival T/C
Assay: NCI In Vivo Anticancer Drug Screen. Data for tumor model P388 Leukemia (intraperitoneal) in CD2F1 (CDF1) mice
Conditions: endpoint: median survival time, higher = longer survival
Method in brief: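 Mice carrying the transplanted tumor received test compound or vehicle. Survival was recorded in each group, and the value is the treated-group measurement divided by that of the vehicle-treated control group.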

[1] = dose: 50.0 mg/kg/injection, schedule: Q01DX009 (ip), vehicle: saline
[2] = dose: 100.0 mg/kg/injection, schedule: Q01DX009 (ip), vehicle: saline
[3] = dose: 100.0 mg/kg/injection, schedule: Q01DX009 (ip), vehicle: Klucel (hydroxypropylcellulose) (HPC)
[4] = dose: 200.0 mg/kg/injection, schedule: Q01DX009 (ip), vehicle: Klucel (hydroxypropylcellulose) (HPC)
[5] = dose: 25.0 mg/kg/injection, schedule: Q01DX009 (ip), vehicle: saline with Tween-80
[6] = dose: 50.0 mg/kg/injection, schedule: Q01DX009 (ip), vehicle: saline with Tween-80
[7] = dose: 100.0 mg/kg/injection, schedule: Q01DX009 (ip), vehicle: saline with Tween-80
[8] = dose: 6.25 mg/kg/injection, schedule: Q01DX009 (ip), vehicle: saline with Tween-80
[9] = dose: 12.5 mg/kg/injection, schedule: Q01DX009 (ip), vehicle: saline with Tween-80
[10] = dose: 100.0 mg/kg/injection, schedule: Q01DX001 (ip), vehicle: saline with Tween-80
[11] = dose: 50.0 mg/kg/injection, schedule: Q01DX005 (ip), vehicle: Klucel (hydroxypropylcellulose) (HPC)
[12] = dose: 100.0 mg/kg/injection, schedule: Q01DX005 (ip), vehicle: Klucel (hydroxypropylcellulose) (HPC)
[13] = dose: 200.0 mg/kg/injection, schedule: Q01DX005 (ip), vehicle: Klucel (hydroxypropylcellulose) (HPC)
[14] = dose: 50.0 mg/kg/injection, schedule: Q01DX005 (ip), vehicle: saline with Tween-80
[15] = dose: 100.0 mg/kg/injection, schedule: Q01DX005 (ip), vehicle: saline with Tween-80
[16] = dose: 200.0 mg/kg/injection, schedule: Q01DX005 (ip), vehicle: saline with Tween-80
[17] = dose: 50.0 mg/kg/injection, schedule: Q04DX003 (ip), vehicle: saline
[18] = dose: 100.0 mg/kg/injection, schedule: Q04DX003 (ip), vehicle: saline
[19] = dose: 60.0 mg/kg/injection, schedule: Q01DX005 (ip), vehicle: saline with Tween-80
[20] = dose: 120.0 mg/kg/injection, schedule: Q01DX005 (ip), vehicle: saline with Tween-80
[21] = dose: 240.0 mg/kg/injection, schedule: Q01DX005 (ip), vehicle: saline with Tween-80

Cc1cccc(Oc2ccc(C(F)(F)F)cc2[N+](=O)[O-])c1C
T/C [1]: 99 % of control
T/C [2]: 99 % of control

O=C1c2c3c(c4c(c2C(=O)c2c5c(c6c(c21)CCC6)CCC5)CCC4)CCC3
T/C (dose: 10.0 mg/kg/injection, schedule: Q01DX009 (ip), vehicle: saline with Tween-80): 95 % of control
T/C (dose: 20.0 mg/kg/injection, schedule: Q01DX009 (ip), vehicle: saline with Tween-80): 96 % of control
T/C (dose: 40.0 mg/kg/injection, schedule: Q01DX009 (ip), vehicle: saline with Tween-80): 99 % of control

CCOC(=O)C(C)NO (stereo not drawn)
T/C [1]: 97 % of control
T/C [2]: 94 % of control

CCCCCSc1nc2ccc(NCN3C(=O)C4C5C=CC(C5)C4C3=O)cc2s1 (stereo not drawn)
T/C (dose: 50.0 mg/kg/injection, schedule: Q01DX009 (ip), vehicle: Klucel (hydroxypropylcellulose) (HPC)): 98 % of control
T/C [3]: 86 % of control
T/C [4]: 92 % of control

Cc1ccc([SeH])cc1.[Sn]
T/C [5]: 92 % of control
T/C [6]: 94 % of control
T/C [7]: 86 % of control

CC(Nc1nccs1)Nc1nccs1
T/C [8]: 102 % of control and 96 % of control
T/C [9]: 108 % of control and 98 % of control
T/C [5]: 102 % of control and 97 % of control
T/C [6]: 111 % of control
T/C [7]: 109 % of control

Cc1cc(C)c(C(=O)CCl)c(C)c1C(=O)CCl
T/C [10]: 102 % of control
T/C (dose: 200.0 mg/kg/injection, schedule: Q01DX001 (ip), vehicle: saline with Tween-80): 110 % of control
T/C (dose: 400.0 mg/kg/injection, schedule: Q01DX001 (ip), vehicle: saline with Tween-80): 109 % of control

CC(C)(C)c1ccc(C(O)(C(F)(F)F)C(F)(F)F)cc1
T/C (dose: 100.0 mg/kg/injection, schedule: Q04DX002 (ip), vehicle: Klucel (hydroxypropylcellulose) (HPC)): 94 % of control
T/C (dose: 200.0 mg/kg/injection, schedule: Q04DX002 (ip), vehicle: Klucel (hydroxypropylcellulose) (HPC)): 94 % of control
T/C (dose: 400.0 mg/kg/injection, schedule: Q04DX002 (ip), vehicle: Klucel (hydroxypropylcellulose) (HPC)): 109 % of control

COC(=O)Nc1c2c(nc3ccccc13)-c1ccccc1C(C)(C)C2OC (stereo not drawn)
T/C [11]: 99 % of control
T/C [12]: 108 % of control
T/C [13]: 104 % of control

COc1cc2cc3c(nc2cc1OC)OC(=O)/C3=C\c1ccccc1
T/C [14]: 99 % of control
T/C [15]: 98 % of control
T/C [16]: 103 % of control

Cc1c2cc[n+](C)cc2c(C)c2c1[nH]c1ccc(O)cc12
T/C (dose: 0.25 mg/kg/injection, schedule: Q04DX003 (ip), vehicle: water): 115 % of control
T/C (dose: 0.25 mg/kg/injection, schedule: Q04DX003 (iv), vehicle: water): 94 % of control
T/C (dose: 0.5 mg/kg/injection, schedule: Q04DX003 (iv), vehicle: water): 93 % of control
T/C (dose: 0.78 mg/kg/injection, schedule: Q04DX003 (ip), vehicle: saline): 152 % of control
T/C (dose: 1.0 mg/kg/injection, schedule: Q04DX003 (ip), vehicle: water): 151 % of control
T/C (dose: 1.0 mg/kg/injection, schedule: Q04DX003 (iv), vehicle: water): 100 % of control
T/C (dose: 1.56 mg/kg/injection, schedule: Q04DX003 (ip), vehicle: saline): 164 % of control
T/C (dose: 2.0 mg/kg/injection, schedule: Q04DX003 (ip), vehicle: water): 152 % of control and 161 % of control
T/C (dose: 2.0 mg/kg/injection, schedule: Q04DX003 (iv), vehicle: water): 111 % of control
T/C (dose: 3.12 mg/kg/injection, schedule: Q04DX003 (ip), vehicle: saline): 172 % of control
T/C (dose: 3.6 mg/kg/injection, schedule: Q04DX002 (ip), vehicle: saline): 176 % of control
T/C (dose: 4.0 mg/kg/injection, schedule: Q04DX003 (iv), vehicle: water): 99 % of control
T/C (dose: 4.5 mg/kg/injection, schedule: Q04DX002 (ip), vehicle: saline): 151 % of control
T/C (dose: 6.0 mg/kg/injection, schedule: Q04DX002 (ip), vehicle: saline): 188 % of control
T/C (dose: 6.25 mg/kg/injection, schedule: Q04DX003 (ip), vehicle: saline): 150 % of control
T/C (dose: 7.5 mg/kg/injection, schedule: Q04DX002 (ip), vehicle: saline): 94 % of control
T/C (dose: 12.5 mg/kg/injection, schedule: Q04DX003 (ip), vehicle: saline): 170 % of control
T/C [17]: 93 % of control
T/C [18]: 94 % of control

C1CCC2[N-]CC3CCCCC3[N-]CC3CCCCC3[N-]CC3CCCCC3[N-]CC2C1.[Cu+2].[O-][Cl+3]([O-])([O-])O (stereo not drawn)
T/C (dose: 0.78 mg/kg/injection, schedule: Q01DX009 (ip), vehicle: Klucel (hydroxypropylcellulose) (HPC)): 117 % of control
T/C [8]: 152 % of control
T/C (dose: 8.0 mg/kg/injection, schedule: Q01DX009 (ip), vehicle: saline with Tween-80): 154 % of control
T/C (dose: 12.5 mg/kg/injection, schedule: Q01DX009 (ip), vehicle: Klucel (hydroxypropylcellulose) (HPC)): 87 % of control
T/C [9]: 158 % of control
T/C (dose: 25.0 mg/kg/injection, schedule: Q01DX009 (ip), vehicle: Klucel (hydroxypropylcellulose) (HPC)): 87 % of control

CC1(C)OOC(C)(O)C1Br (stereo not drawn)
T/C [17]: 95 % of control
T/C [18]: 103 % of control
T/C (dose: 200.0 mg/kg/injection, schedule: Q04DX003 (ip), vehicle: saline): 95 % of control

O=C1c2ccccc2C(=O)c2cnccc21
T/C [11]: 109 % of control
T/C [12]: 106 % of control
T/C [13]: 106 % of control

CC1(C)CC2(Nc3ccccc3N2)C2=C(O1)C(=O)OC2
T/C [19]: 101 % of control
T/C [20]: 103 % of control
T/C [21]: 92 % of control

O=C1NC2(CCCCC2)C(=O)N1CCCN1C(=O)NC2(CCCCC2)C1=O
T/C [19]: 107 % of control
T/C [20]: 102 % of control
T/C [21]: 101 % of control

CCN(CC)c1c(C)nnc2c3cccnc3nn12
T/C (dose: 25.0 mg/kg/injection, schedule: Q01DX001 (ip), vehicle: saline with Tween-80): 100 % of control
T/C (dose: 50.0 mg/kg/injection, schedule: Q01DX001 (ip), vehicle: saline with Tween-80): 103 % of control
T/C [10]: 106 % of control and 97 % of control

O=C(Nc1nnc(-c2ccccc2)s1)c1cc(=O)c2cc([N+](=O)[O-])ccc2o1
T/C [14]: 100 % of control
T/C [15]: 102 % of control
T/C [16]: 96 % of control

O=C1OC(c2ccccc2)(c2ccccc2)CC1C=C(c1ccccc1)c1ccccc1 (stereo not drawn)
T/C (dose: 25.0 mg/kg/injection, schedule: Q01DX005 (ip), vehicle: saline with Tween-80): 92 % of control
T/C [14]: 89 % of control and 94 % of control
T/C [15]: 89 % of control

O=c1oc(-c2cccc(C(Cl)Cl)c2)ns1
T/C [3]: 112 % of control
T/C [4]: 107 % of control
T/C (dose: 400.0 mg/kg/injection, schedule: Q01DX009 (ip), vehicle: Klucel (hydroxypropylcellulose) (HPC)): 105 % of control

COC(=O)C1c2ccc(OC)c(OC)c2C(=O)N2CCc3cc4c(cc3C12)OCO4 (stereo not drawn)
T/C (dose: 50.0 mg/kg/injection, schedule: Q04DX003 (ip), vehicle: distilled water + Tween-80): 95 % of control
T/C (dose: 100.0 mg/kg/injection, schedule: Q04DX003 (ip), vehicle: distilled water + Tween-80): 101 % of control
T/C (dose: 200.0 mg/kg/injection, schedule: Q04DX003 (ip), vehicle: distilled water + Tween-80): 95 % of control
T/C (dose: 400.0 mg/kg/injection, schedule: Q04DX003 (ip), vehicle: distilled water + Tween-80): 104 % of control

CCOC(=O)C1=C(C)N(Cc2ccccc2)C2(O)C1=CC(=O)C(Cl)=C2Cl (stereo not drawn)
T/C [1]: 99 % of control
T/C [2]: 105 % of control
T/C (dose: 200.0 mg/kg/injection, schedule: Q01DX009 (ip), vehicle: saline): 108 % of control

CC12CCC(=O)C=C1CCC1C2CCC2(C)C(OC(=O)C34C=CC(=O)C3C3C=CC4CC3)CCC12 (stereo not drawn)
T/C (dose: 25.0 mg/kg/injection, schedule: Q01DX005 (ip), vehicle: distilled water + Tween-80): 95 % of control
T/C (dose: 50.0 mg/kg/injection, schedule: Q01DX005 (ip), vehicle: distilled water + Tween-80): 92 % of control
